Measured values: US20170216296A1, “METHODS OF TREATING HYPERGLYCEMIA” (Concert Pharmaceuticals, Inc., priority 2014, published 2017)

Key:
HbAlc [1] = details: 100 patients with type 2 diabetes; cited from earlier work
HbAlc [2] = test: Phase 2 placebo-controlled clinical trial, HbAlc in whole blood; format: in vivo, human; details: for least square mean HbAlc value: 600 mg twice daily, preliminary, FIG. 1
Protocol: A Phase 2 placebo-controlled clinical trial of Compound (V) was conducted in patients with type 2 diabetic kidney disease and macroalbuminuria. The purpose of the trial was to compare Compound (V) to placebo in terms of safety and efficacy with respect to measures of renal function such as urinary albumin to creatinine ratio, serum creatinine levels, and estimated glomerular filtration rate. HbAlc was measured but was not an intended endpoint of the trial. Thus, while the study was controlled for other medications, it was not controlled for anti-glycemic medications nor were the placebo and treated groups matched for baseline HbAlc levels.
All patients enrolled in the clinical trial were concurrently treated with angiotensin modulators. The clinical trial consists of three parts, two of which were completed and a third part that is on-going. Part 1 was a double-blind, parallel, two-arm, placebo-controlled study evaluating the safety and efficacy of 600 mg of Compound (V) twice daily for 24 weeks. 182 patients were enrolled in this first part of the trial. Part 2 was a blinded 24-week extension study in which all patients who completed Part 1 were eligible to continue receiving 600 mg of Compound (V) or placebo twice daily. 143 patients were enrolled in this part of the clinical trial and have completed dosing. 123 of the 143 patients that were enrolled in Part 2 of the clinical trial completed Part 2. The combined 48 weeks of data from Parts 1 and 2 of the clinical trial have been analyzed. 102 patients enrolled in Part 3 which is a 48 week open-label extension study that is on-going. All patients who completed Part 2 were eligible to receive 600 mg of Compound (V) twice daily.
The key criteria for patients to be included in the clinical trial were (a) eGFR from 23 to 89 mL/min/1.73 m2, a measure of kidney function which indicates mild to moderately severe type 2 diabetic kidney disease; (b) having been on a stable angiotensin modulation regimen for a minimum of four weeks prior to initiating screening and nine weeks prior to initiating dosing; (c) blood pressure less than or equal to 145/90 mm Hg; (d) glycosylated hemoglobin Alc (HbAlc) less than or equal to 10.5%; and (e) UACR greater than or equal to 200 mg/g in male patients and 300 mg/g in female patients, ratios of albumin to creatinine that are indicative of substantial kidney damage in men and women, but not more than 5,000 mg/g, a ratio indicative of severe kidney disease. HbAlc in whole blood samples was measured by ion-exchange chromatography using a TOSOH HLC-723G8 HPLC analyzer.
The procedure is similar to the one described in the Laboratory Procedure Manual of the Centers for Disease Control and Prevention. See www.cdc.gov/nchs/data/nhanes/nhanes_11_12/GHB_met_G_Tosoh_G8.pdf. The TOSOH instrument can reliably detect HbAlc levels in the range of 4.0-16.8%.
Patients were sampled at weeks 0, 12, 24, 36 and 48 weeks (see FIG. 1). The value at 0 weeks was calculated as the mean of values recorded on Days −28, −7 and −1. In other words, the patients were tested 4 weeks before the trial, one week before the trial and one day before. The mean value of the measurements was recorded as Day 0 for the trial.

| SMILES | effect on HbAlC (HbAlc [1]) | lowering of HbAlc in the treated group relative to placebo (HbAlc [2]; Part 1 and Part 2 (48 weeks), p=0.0001) | least square mean HbAlc value (HbAlc [2]; after Part 1 and Part 2 of the trial (48 weeks)) | least square mean HbAlc value (HbAlc [2]; beginning of the trial (week 0, mean of Days -28, -7 and -1), patients with type 2 diabetic kidney disease and macroalbuminuria) | effect on hemoglobin glycosylation (HbAlc [2]; group receiving compound, sampled at weeks 0, 12, 24, 36 and 48) | drop in AlC (HbAlc [2]; overall group change from baseline, FIG. 2 (week 12), placebo 0.23 increase, statistically significant) | patients with lower HbAlc after 12 weeks (HbAlc [2]; week 12 change from baseline, number of patients/patients in arm, FIG. 2, placebo 33/79) |
| --- | --- | --- | --- | --- | --- | --- | --- |
| CC(=O)CCCCn1c(=O)c2c(ncn2C)n(C)c1=O [Pentoxifylline] | no effect |  |  |  |  |  |  |
| [2H]C([2H])([2H])[C@H](O)C([2H])([2H])CCCn1c(=O)c2c(ncn2C)n(C)c1=O [Compound (V)] |  | statistically significant | 7.1 | 7.7 | positive effect | 0.35 | 57/83 |
